Laboratory results: US20220008563A1, “RADIOLABELLED AND NONRADIOLABELLED PEGYLATED COMPOUNDS AND USES THEREOF” (The Regents of the University of California, priority 2020, published 2022)
pKi: −log10 of the molar value. Values belong to the compound of their own block, whether it stands above or below them.

Columns and labels:
[1] = target: T1, MAO-A (Homo sapiens, UniProt P21397); test: Effect of drugs on the binding of [^18F]FAZIN3 in postmortem human brain sections; details: for selectivity of binding for MAO-A versus MAO-B: by use of clorgyline (MAO-A inhibitor) and deprenyl (MAO-B inhibitor)
T1 construct: tissue Banner Sun Health Research Institute; host or cells: postmortem human anterior cingulate / corpus callosum sections (CN, AD, PD subjects)
T1 sequence (P21397 1-527): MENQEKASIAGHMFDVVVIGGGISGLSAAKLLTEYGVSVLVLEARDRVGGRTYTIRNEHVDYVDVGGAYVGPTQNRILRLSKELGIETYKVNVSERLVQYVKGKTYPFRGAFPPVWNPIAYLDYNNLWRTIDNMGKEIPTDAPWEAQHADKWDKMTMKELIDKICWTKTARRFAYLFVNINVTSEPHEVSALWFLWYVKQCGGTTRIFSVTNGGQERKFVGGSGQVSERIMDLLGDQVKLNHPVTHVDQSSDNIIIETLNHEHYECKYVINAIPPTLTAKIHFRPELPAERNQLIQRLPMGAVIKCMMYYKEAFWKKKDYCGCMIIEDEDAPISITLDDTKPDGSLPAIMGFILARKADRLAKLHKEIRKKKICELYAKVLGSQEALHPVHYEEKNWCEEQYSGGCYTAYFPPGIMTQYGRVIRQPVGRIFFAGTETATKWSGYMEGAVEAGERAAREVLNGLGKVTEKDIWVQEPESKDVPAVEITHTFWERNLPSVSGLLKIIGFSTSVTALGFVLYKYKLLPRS
Method: MK-6240 (10 μM) was used since it is known to bind to Tau. […] The slides containing the sections (10 μm thick) were preincubated in PBS buffer for 15 minutes in eight different slide chambers (one total binding and seven with the different drugs). The preincubation PBS buffer was discarded and appropriate amount of each drug (dissolved in ethanol) was added to the chambers with the slides. […] The chambers were incubated at 25° C. for 1.25 h. The slides were then washed with cold PBS buffer twice, and cold water, respectively. The slides with the brain sections were air dried, exposed overnight on a phosphor film, and then placed on the Phosphor Autoradiographic Imaging System/Cyclone Storage Phosphor System (Packard Instruments Co).

[2] = target: Tau protein (Homo sapiens, UniProt P10636); test: In vitro binding in human AD brain slices using [^125I]IPPI; details: [^125I]IPPI labeled human AD brain slices
Tau protein (Homo sapiens, UniProt P10636), sequence (P10636 with tags, fused parts or gaps): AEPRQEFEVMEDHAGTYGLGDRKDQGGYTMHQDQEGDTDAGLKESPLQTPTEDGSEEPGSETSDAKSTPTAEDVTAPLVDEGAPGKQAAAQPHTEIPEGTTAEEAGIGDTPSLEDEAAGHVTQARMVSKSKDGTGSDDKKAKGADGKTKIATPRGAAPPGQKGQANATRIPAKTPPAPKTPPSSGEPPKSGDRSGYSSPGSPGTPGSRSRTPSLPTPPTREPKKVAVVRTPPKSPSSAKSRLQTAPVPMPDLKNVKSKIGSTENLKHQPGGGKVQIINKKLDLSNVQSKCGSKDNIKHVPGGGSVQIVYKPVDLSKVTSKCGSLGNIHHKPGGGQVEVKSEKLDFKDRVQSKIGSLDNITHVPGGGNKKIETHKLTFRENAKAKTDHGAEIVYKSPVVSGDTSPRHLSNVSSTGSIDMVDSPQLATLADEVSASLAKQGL
Method: Assessing the binding specificity of Flotaza. In vitro binding affinity of Flotaza in human AD brain slices using [^3H]PIB for Aβ plaques and [^125I]IPPI for Tau were carried out. […] Thus, Flotaza is a selective Aβ plaque agent.

[3] = system: Aβ plaques; test: Postmortem human brain autoradiography of [^18F]Flotaza in AD subjects; type: binding
Text: Postmortem human brain autoradiography [^18F]Flotaza in AD subjects. Well characterized brain samples were obtained from Banner Health Research Institute. Brain slices from six AD subjects included anterior cingulate (gray matter, GM) and corpus callosum (white matter, WM) as shown for one subject in FIG. 24A. The AD brain sections of the six AD subjects were further confirmed to contain Aβ plaques in the GM regions by immunostaining with anti-Aβ Biolegend (known to stain Aβ1-16) as shown in FIG. 24B.
It must be noted that in these experiments, after [^18F]Flotaza binding, the slices were washed with 50% alcohol in PBS buffer.

[4] = target: human Aβ plaques (Homo sapiens, UniProt P05067); test: In vitro binding affinity in human AD brain slices using [^3H]PIB; details: human AD brain slices (anterior cingulate, corpus callosum)
human Aβ plaques, sequence (P05067 672-713): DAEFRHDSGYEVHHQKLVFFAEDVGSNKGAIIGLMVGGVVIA
Method: Analytical thin-layer chromatography (TLC) was used to monitor reactions (Baker-flex, Phillipsburg, N.J., USA). RadioTLC were scanned on an AR-2000 imaging scanner (Eckart & Ziegler, Berlin, Germany). Electrospray mass spectra were obtained from a Model 7250 mass spectrometer (Micromass LCT). Proton NMR spectra were recorded on a Bruker OM EGA 500-MHz spectrometer. Tritium was assayed by using a Packard Tri-Carb Liquid scintillation counter with 65% efficiency. Human postmortem brain tissue samples were obtained from Banner Sun Health Research Institute, Sun City, Ariz. brain tissue repository for in vitro experiments. Age and gender matched AD brain and cognitively normal (CN) brain tissue samples selected for end-stage pathology (Braak & Braak stage of VI; Braak and Braak 1991). Human postmortem brain slices were obtained from chunks of frozen tissue on a Leica 1850 cryotome cooled to −20° C. Tritium and iodine-125, and fluorine-18 autoradiographic studies were carried out by exposing tissue samples on storage phosphor screens (Perkin Elmer Multisensitive, Medium MS and tritium sensitive phosphor screens). The apposed phosphor screens were read and analyzed by OptiQuant acquisition and analysis program of the Cyclone Storage Phosphor System (Packard Instruments Co., Boston, Mass.). […]

[5] = system: Aβ plaques; details: hippocampal AD brain sections; cited from earlier work
[6] = system: Tau protein; test: [^125I]IPPI / [^124I]IPPI autoradiography of postmortem AD brain slices; type: binding, human
Method: FIG. 18A-H: provides the results of [^125I]IPPI competitive binding assay with various inhibitors. (A) Postmortem human brain 10 μm thick sections (from two AD subjects, 11-107 and 11-38) of anterior cingulate (AC) grey matter (arrows showing GM) and corpus callosum (CC) white matter (WM). (B) [^125I]IPPI binding to grey matter, AC with low nonspecific binding in white matter, CC. […] (E) BrPPI, 10 μM effect on [^125I ]IPPI binding. (F) MK-6240, 10μM effect on [^125I]IPPI binding. (G) Immunostaining of 11-38 with Dako A0024 for total Tau; (i) picture of entire slice and (ii) magnification (x10) of box in (i). (H) Plot comparing GM and WM in the two AD subjects with different drugs.

[7] = system: Aβ plaques; test: ^125I-IAZA brain autoradiography in postmortem human AD brain; type: binding; details: anterior cingulate
Text: FIG. 22A-F provides the results of brain autoradiography in postmortem human brain from an Alzheimer patient using ^125I-IAZA and ^124I-IAZA. (A) AD brain slice showing gray matter (GM), anterior cingulate and white matter (WM) corpus callosum. […] (D) AD brain cortex slice showing gray matter on the left edges. (E)-(F) ^125I-IAZA binding in the outer regions containing gray matter which is consistent with Tau buildup.

- selectivity of binding for MAO-A versus MAO-B [1]: selective MAO-A binding
Compound: 4-O-[^18F]FluoroPEG3-2-(1H-pyrrolo[2,3-c]pyridine-1-yl)pyridine [[^18F]FAZIN3]

Compound: FCCOCCOCCOc1ccnc(-n2ccc3ccncc32)c1 [FAZIN3, 4-O-FluoroPEG3-2-(1H-pyrrolo[2,3-c]pyridine-1-yl)pyridine]
- selectivity of binding for MAO-A versus MAO-B [1]: selectively bound to MAO-A

- effect on the binding of [^125I]IPPI [2]: did not have any significant effect
Compound: CN(C)c1ccc(N=Nc2ccc(OCCOCCOCCF)cc2)cc1 [Flotaza]

- displacement (inhibition) of [^18F]FAZIN3 binding ([1]; drug 10 μM, human brain sections): did not have much effect
Compound: Nc1c(F)ccc2cnc(-n3ccc4ccncc43)cc12 [MK-6240, reference compound]

Compound: CNc1ccc(-c2nc3ccc(O)cc3s2)cc1 [PIB, reference compound]
- effect on grey matter binding of [^18F]Flotaza ([3]; AD brain sections treated with the drug): significantly reduced

Compound: CNc1ccc(N=Nc2ccc(N(C)C)cc2)cc1 [TAZA]
- pKi [4]: 9.27

Compound: [11CH3]Nc1ccc(-c2nc3ccc(O)cc3s2)cc1 [[^11C]PIB]
- GM/WM ratios [5]: lower GM/WM ratios

- binding in the grey matter regions of AD subjects ([3]; anterior cingulate, AD subjects): Extensive binding
- ratio between gray matter and white matter binding ([3]; six AD subjects, slices washed with 50% alcohol in PBS buffer): > 100
Compound: CN(C)c1ccc(N=Nc2ccc(OCCOCCOCC[18F])cc2)cc1 [[^18F]Flotaza]

Compound: [125I]c1ccc2cnc(-n3ccc4ccncc43)cc2c1 [[^125I]IPPI, 6-[^125I]iodo-3-(1H-pyrrolo[2,3-c]pyridine-1-yl)isoquinoline]
- sensitivity of binding to MAO inhibitors ([6]; MAO inhibitors at <1 μM concentrations): resistance to MAO inhibitors
- binding to Tau protein / neurofibrillary tangles in Alzheimer's disease brain grey matter ([6]; postmortem AD brain slices): Excellent binding

Compound: CN(C)c1ccc(N=Nc2ccc([125I])cc2)cc1 [^125I-IAZA]
- binding in gray matter of AD brain slices [7]: binding in the gray matter regions
